Consider 23 molecules from patent US10961231B2, “NTCP inhibitors” (National Institute of Biological Sciences, Beijing, priority 2018, dated 2021).

pIC50: −log10 of the molar value.

The target of one assay is T1, NTCP (Homo sapiens, UniProt Q14973).
T1 sequence (Q14973 1-349): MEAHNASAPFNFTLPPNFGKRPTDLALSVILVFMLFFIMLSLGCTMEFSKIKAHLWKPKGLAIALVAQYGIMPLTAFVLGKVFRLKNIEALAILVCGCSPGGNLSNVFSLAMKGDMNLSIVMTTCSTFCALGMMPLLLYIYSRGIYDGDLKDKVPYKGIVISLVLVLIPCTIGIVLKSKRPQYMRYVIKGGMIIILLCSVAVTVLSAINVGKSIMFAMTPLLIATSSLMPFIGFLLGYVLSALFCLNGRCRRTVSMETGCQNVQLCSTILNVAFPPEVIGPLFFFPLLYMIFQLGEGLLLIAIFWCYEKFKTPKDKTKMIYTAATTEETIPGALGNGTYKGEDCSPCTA
Kind of assay: [3H]-TCA uptake assay (NTCP inhibition). The class given is cell-based. The settings on record: IC50, given as a range, marked * (asterisk not explained). The method, boiled down: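 Read-out is liquid scintillation counting of Triton X-100 lysates after 15 min, 37° C uptake of 1 μM [3H]-taurocholate in Na+ Ringer's buffer (145 mM Na). Beforehand, PTH and HepG2-NTCP cells had 24 h in PMM for NTCP induction and 2 h of compound or DMSO treatment.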
With `CCC1NC(=O)C(C2OC(SCc3ccc(OCCN(C)C)cc3)CC2C)N(C)C(=O)C(C(C)C)N(C)C(=O)C(CC(C)C)N(C)C(=O)C(CC(C)C)N(C)C(=O)C(C)NC(=O)C(C)NC(=O)C(CC(C)C)N(C)C(=O)C(C(C)C)NC(=O)C(CC(C)C)N(C)C(=O)CN(C)C1=O` (centres unmarked) [Compound 87A-s], the negative-log IC50 (pIC50) was 4.00 to 6.00. Still for that read-out and setting: next, `CCC1NC(=O)C(C2OC(SCc3cccc(Cl)c3OC)CC2C)N(C)C(=O)C(C(C)C)N(C)C(=O)C(CC(C)C)N(C)C(=O)C(CC(C)C)N(C)C(=O)C(C)NC(=O)C(C)NC(=O)C(CC(C)C)N(C)C(=O)C(C(C)C)NC(=O)C(CC(C)C)N(C)C(=O)CN(C)C1=O` (centres unmarked) [Compound 88A-s]: 4.00 to 6.00; `CCC1NC(=O)C(C2OC(SCc3ccc(Cl)cc3Cl)CC2C)N(C)C(=O)C(C(C)C)N(C)C(=O)C(CC(C)C)N(C)C(=O)C(CC(C)C)N(C)C(=O)C(C)NC(=O)C(C)NC(=O)C(CC(C)C)N(C)C(=O)C(C(C)C)NC(=O)C(CC(C)C)N(C)C(=O)CN(C)C1=O` (centres unmarked) [Compound 89A-s]: 4.00 to 6.00; `CCC1NC(=O)C(C2OC(SCc3c(Cl)cccc3Cl)CC2C)N(C)C(=O)C(C(C)C)N(C)C(=O)C(CC(C)C)N(C)C(=O)C(CC(C)C)N(C)C(=O)C(C)NC(=O)C(C)NC(=O)C(CC(C)C)N(C)C(=O)C(C(C)C)NC(=O)C(CC(C)C)N(C)C(=O)CN(C)C1=O` (centres unmarked) [Compound 90A-s]: 4.00 to 6.00. Consider `CCC1NC(=O)C(C2OC(SCc3cc(Cl)cc(Cl)c3)CC2C)N(C)C(=O)C(C(C)C)N(C)C(=O)C(CC(C)C)N(C)C(=O)C(CC(C)C)N(C)C(=O)C(C)NC(=O)C(C)NC(=O)C(CC(C)C)N(C)C(=O)C(C(C)C)NC(=O)C(CC(C)C)N(C)C(=O)CN(C)C1=O` (centres unmarked) [Compound 91B-s], for which the pIC50 is 4.00 to 6.00.

With `CCC1NC(=O)C(C2OC(SC(C)c3cc(Cl)cc(Cl)c3)CC2C)N(C)C(=O)C(C(C)C)N(C)C(=O)C(CC(C)C)N(C)C(=O)C(CC(C)C)N(C)C(=O)C(C)NC(=O)C(C)NC(=O)C(CC(C)C)N(C)C(=O)C(C(C)C)NC(=O)C(CC(C)C)N(C)C(=O)CN(C)C1=O` (centres unmarked) [Compound 92A-s], the pIC50 is 4.00 to 6.00.

In the case of `CCC1NC(=O)C(C2OC(SCc3ccc(Cl)c(Cl)c3)CC2C)N(C)C(=O)C(C(C)C)N(C)C(=O)C(CC(C)C)N(C)C(=O)C(CC(C)C)N(C)C(=O)C(C)NC(=O)C(C)NC(=O)C(CC(C)C)N(C)C(=O)C(C(C)C)NC(=O)C(CC(C)C)N(C)C(=O)CN(C)C1=O` (centres unmarked) [Compound 94A-s], the negative-log IC50 (pIC50) was 4.00 to 6.00. Molecule `CCC1NC(=O)C(C2OC(SCc3cccc(N4CCOCC4)c3)CC2C)N(C)C(=O)C(C(C)C)N(C)C(=O)C(CC(C)C)N(C)C(=O)C(CC(C)C)N(C)C(=O)C(C)NC(=O)C(C)NC(=O)C(CC(C)C)N(C)C(=O)C(C(C)C)NC(=O)C(CC(C)C)N(C)C(=O)CN(C)C1=O` (centres unmarked) [Compound 95-s] gave a pIC50 of 4.00 to 6.00.

Take `CCC1NC(=O)C(C2OC(OCc3cccc(N4CCOCC4)c3)CC2C)N(C)C(=O)C(C(C)C)N(C)C(=O)C(CC(C)C)N(C)C(=O)C(CC(C)C)N(C)C(=O)C(C)NC(=O)C(C)NC(=O)C(CC(C)C)N(C)C(=O)C(C(C)C)NC(=O)C(CC(C)C)N(C)C(=O)CN(C)C1=O` (centres unmarked) [Compound 95]: the pIC50 was 4.00 to 6.00.

The molecule `CCC1NC(=O)C(C2OC(SC(C)c3ccc(Cl)c(Cl)c3)CC2C)N(C)C(=O)C(C(C)C)N(C)C(=O)C(CC(C)C)N(C)C(=O)C(CC(C)C)N(C)C(=O)C(C)NC(=O)C(C)NC(=O)C(CC(C)C)N(C)C(=O)C(C(C)C)NC(=O)C(CC(C)C)N(C)C(=O)CN(C)C1=O` (centres unmarked) [Compound 96A-s] had a pIC50 of 4.00 to 6.00. Take `CCC1NC(=O)C(C2OC(SCc3cc(Cl)ccc3Cl)CC2C)N(C)C(=O)C(C(C)C)N(C)C(=O)C(CC(C)C)N(C)C(=O)C(CC(C)C)N(C)C(=O)C(C)NC(=O)C(C)NC(=O)C(CC(C)C)N(C)C(=O)C(C(C)C)NC(=O)C(CC(C)C)N(C)C(=O)CN(C)C1=O` (centres unmarked) [Compound 98A-s]: the pIC50 is 4.00 to 6.00. Turning to `CCC1NC(=O)C(C2OC(SCc3ccc(N4CCOCC4)cc3)CC2C)N(C)C(=O)C(C(C)C)N(C)C(=O)C(CC(C)C)N(C)C(=O)C(CC(C)C)N(C)C(=O)C(C)NC(=O)C(C)NC(=O)C(CC(C)C)N(C)C(=O)C(C(C)C)NC(=O)C(CC(C)C)N(C)C(=O)CN(C)C1=O` (centres unmarked) [Compound 99A-s], the negative logarithm of the IC50 (pIC50) was 4.00 to 6.00.

In turn, `CCC1NC(=O)C(C2OC(SCc3ccc4c(c3)OCO4)CC2C)N(C)C(=O)C(C(C)C)N(C)C(=O)C(CC(C)C)N(C)C(=O)C(CC(C)C)N(C)C(=O)C(C)NC(=O)C(C)NC(=O)C(CC(C)C)N(C)C(=O)C(C(C)C)NC(=O)C(CC(C)C)N(C)C(=O)CN(C)C1=O` (centres unmarked) [Compound 100A-s] gave a pIC50 of 4.00 to 6.00.

Still in this assay, the particulars now being: IC50, given as a range; assay not given.
Regarding `CCC1NC(=O)C(C2OC(SCc3ccc(Cl)cc3)CC2C)N(C)C(=O)C(C(C)C)N(C)C(=O)C(CC(C)C)N(C)C(=O)C(CC(C)C)N(C)C(=O)C(C)NC(=O)C(C)NC(=O)C(CC(C)C)N(C)C(=O)C(C(C)C)NC(=O)C(CC(C)C)N(C)C(=O)CN(C)C1=O` (centres unmarked) [Compound 86A-s], the pIC50 is 4.00 to 6.00.

Molecule `CCC1NC(=O)C(C2OC(OCc3ccc(OCCN(C)C)cc3)CC2C)N(C)C(=O)C(C(C)C)N(C)C(=O)C(CC(C)C)N(C)C(=O)C(CC(C)C)N(C)C(=O)C(C)NC(=O)C(C)NC(=O)C(CC(C)C)N(C)C(=O)C(C(C)C)NC(=O)C(CC(C)C)N(C)C(=O)CN(C)C1=O` [Compound 87A, [2-((2R,3R)-5-(4-(2-(dimethylamino)ethoxy)benzyloxy)-3-methyltetrahydrofuran-2-yl)-2-(methylamino)acetic acid]^1-cyclosporin A] gave a pIC50 of 5.00 to 6.00. In the case of `CCC1NC(=O)C(C2OC(OCc3ccc(N4CCOCC4)cc3)CC2C)N(C)C(=O)C(C(C)C)N(C)C(=O)C(CC(C)C)N(C)C(=O)C(CC(C)C)N(C)C(=O)C(C)NC(=O)C(C)NC(=O)C(CC(C)C)N(C)C(=O)C(C(C)C)NC(=O)C(CC(C)C)N(C)C(=O)CN(C)C1=O` [Compound 99A, [2-((2R,3R)-3-methyl-5-(4-morpholinobenzyloxy)tetrahydrofuran-2-yl)-2-(methylamino)acetic acid]^1-cyclosporin A], the pIC50 was 5.00 to 6.00.

The assay is the same for the next values; noted with them: given as a range; assay not given.
In the case of `CCC1NC(=O)C(C2OC(OCc3ccc(Cl)cc3)CC2C)N(C)C(=O)C(C(C)C)N(C)C(=O)C(CC(C)C)N(C)C(=O)C(CC(C)C)N(C)C(=O)C(C)NC(=O)C(C)NC(=O)C(CC(C)C)N(C)C(=O)C(C(C)C)NC(=O)C(CC(C)C)N(C)C(=O)CN(C)C1=O` [Compound 86A, [2-((2R,3R)-5-(4-chlorobenzyloxy)-3-methyltetrahydrofuran-2-yl)-2-(methylamino)acetic acid]^1-cyclosporin A], the IC50 lay in the range of 1 to 1000 nM. `CCC1NC(=O)C(C2OC(SCc3cc(Cl)cc(Cl)c3)CC2C)N(C)C(=O)C(C(C)C)N(C)C(=O)C(CC(C)C)N(C)C(=O)C(CC(C)C)N(C)C(=O)C(C)NC(=O)C(C)NC(=O)C(CC(C)C)N(C)C(=O)C(C(C)C)NC(=O)C(CC(C)C)N(C)C(=O)CN(C)C1=O` [Compound 91A-s, [2-((2R,3R)-5-(3,5-dichlorobenzylthio)-3-methyltetrahydrofuran-2-yl)-2-(methylamino)acetic acid]^1-cyclosporin A] returned an IC50 of 1 to 1000 nM.

`CCC1NC(=O)C(C2OC(OCc3cc(Cl)cc(Cl)c3)CC2C)N(C)C(=O)C(C(C)C)N(C)C(=O)C(CC(C)C)N(C)C(=O)C(CC(C)C)N(C)C(=O)C(C)NC(=O)C(C)NC(=O)C(CC(C)C)N(C)C(=O)C(C(C)C)NC(=O)C(CC(C)C)N(C)C(=O)CN(C)C1=O` [Compound 91B, [2-((2R,3R)-5-(3,5-dichlorobenzyloxy)-3-methyltetrahydrofuran-2-yl)-2-(methylamino)acetic acid]^1-cyclosporin A] showed an IC50 of 1 to 1000 nM.

As to `CCC1NC(=O)C(C2OC(OC(C)c3cc(Cl)cc(Cl)c3)CC2C)N(C)C(=O)C(C(C)C)N(C)C(=O)C(CC(C)C)N(C)C(=O)C(CC(C)C)N(C)C(=O)C(C)NC(=O)C(C)NC(=O)C(CC(C)C)N(C)C(=O)C(C(C)C)NC(=O)C(CC(C)C)N(C)C(=O)CN(C)C1=O` [Compound 92A, [2-((2R,3R)-5-((S)-1-(3,5-dichlorophenyl)ethoxy)-3-methyltetrahydrofuran-2-yl)-2-(methylamino)acetic acid]^1-cyclosporin A], the IC50 is 1 to 1000 nM.

In the case of `CCC1NC(=O)C(C2OC(OCc3ccc(Cl)c(Cl)c3)CC2C)N(C)C(=O)C(C(C)C)N(C)C(=O)C(CC(C)C)N(C)C(=O)C(CC(C)C)N(C)C(=O)C(C)NC(=O)C(C)NC(=O)C(CC(C)C)N(C)C(=O)C(C(C)C)NC(=O)C(CC(C)C)N(C)C(=O)CN(C)C1=O` [Compound 94B, [2-((2R,3R)-5-(3,4-dichlorobenzyloxy)-3-methyltetrahydrofuran-2-yl)-2-(methylamino)acetic acid]^1-cyclosporin A], the half-inhibitory concentration (IC50) was in the range of 1 to 1000 nM. Molecule `CCC1NC(=O)C(C2OC(OCc3ccc4c(c3)OCO4)CC2C)N(C)C(=O)C(C(C)C)N(C)C(=O)C(CC(C)C)N(C)C(=O)C(CC(C)C)N(C)C(=O)C(C)NC(=O)C(C)NC(=O)C(CC(C)C)N(C)C(=O)C(C(C)C)NC(=O)C(CC(C)C)N(C)C(=O)CN(C)C1=O` [Compound 100A, [2-((2R,3R)-5-(benzo[d][1,3]dioxol-5-ylmethoxy)-3-methyltetrahydrofuran-2-yl)-2-(methylamino)acetic acid]^1-cyclosporin A] gave an IC50 of 1 to 1000 nM.

The same assay, now with this note: given as a range; assay not given; read-out: IC50.
For `CC[C@@H]1NC(=O)[C@H]([C@@H]2OC(OCc3cc(Cl)cc(Cl)c3)C[C@H]2C)N(C)C(=O)[C@H](C(C)C)N(C)C(=O)[C@H](CC(C)C)N(C)C(=O)[C@H](CC(C)C)N(C)C(=O)[C@@H](C)NC(=O)[C@H](C)NC(=O)[C@H](CC(C)C)N(C)C(=O)[C@H](C(C)C)NC(=O)[C@H](CC(C)C)N(C)C(=O)CN(C)C1=O` (stereo partly drawn) [Compound 91A, [2-((2R,3R)-5-(3,5-dichlorobenzyloxy)-3-methyltetrahydrofuran-2-yl)-2-(methylamino)acetic acid]^1-cyclosporin A], the pIC50 is 6.00 to 9.00.

Usually pIC50 stands for −log10 of the IC50, conventionally taken in molar units. As a reminder, the IC50 is the midpoint of a concentration-inhibition curve. Low values mean greater potency in that assay, high ones weaker potency in that assay.
